Test results taken from the supplement of paper PMC11579375.

Columns and labels:
Assay in all cases: area under the viability dose-response curve (AUC) (AUC (arbitrary units, max 500 = no viability loss)); higher = less sensitive (higher viability)
Conditions in all cases: exposure time: 120 h; concentration range: 0.1 nM - 10 µM, 6 doses
10F2 = system: 10F2 (fetal-II hepatoblastoma organoid with high liver markers)
Method: (§1)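 Patient-derived hepatoblastoma tumor organoids (about 50 organoids per well, 384-well plates, medium with 5% BME) were treated with the PMC pediatric cancer drug library. Each drug was tested in duplicate at 6 concentrations (0.1 nM to 10 µM, 10-fold steps).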

3E = system: 3E (embryonal-type hepatoblastoma organoid)
Method: as §1

13F2 = system: 13F2 (fetal-II hepatoblastoma organoid with high liver markers)
Method: as §1

96F1 = system: 96F1 (fetal-I hepatoblastoma organoid with intermediate liver markers)
Method: as §1

13E = system: 13E (embryonal-type hepatoblastoma organoid)
Method: as §1

17E = system: 17E (embryonal-type hepatoblastoma organoid)
Method: as §1

8F1 = system: 8F1 (fetal-I hepatoblastoma organoid with intermediate liver markers)
Method: as §1

27F1 = system: 27F1 (fetal-I hepatoblastoma organoid with intermediate liver markers)
Method: as §1

135F2 = system: 135F2 (fetal-II hepatoblastoma organoid with high liver markers)
Method: as §1

22E = system: 22E (embryonal-type hepatoblastoma organoid)
Method: as §1

17F1 = system: 17F1 (fetal-I hepatoblastoma organoid with intermediate liver markers)
Method: as §1

SMILES | area under the viability dose-response curve (10F2) | area under the viability dose-response curve (3E) | area under the viability dose-response curve (13F2) | area under the viability dose-response curve (96F1) | area under the viability dose-response curve (13E) | area under the viability dose-response curve (17E) | area under the viability dose-response curve (8F1) | area under the viability dose-response curve (27F1) | area under the viability dose-response curve (135F2) | area under the viability dose-response curve (22E) | area under the viability dose-response curve (17F1)
C[C@@H]1COCCN1c1cc(=O)n2c(n1)N(Cc1cncc(Cl)c1)[C@H](C(F)(F)F)CC2 [SAR405] | > 500 | 479 | 467 | > 500 | 497 | 496 | 489 | 454 | 490 | 474 | > 500
CCc1c2c(nc3ccc(O)cc13)-c1cc3c(c(=O)n1C2)COC(=O)[C@]3(O)CC [SN-38 (Irinotecan)] | 173 | 156 | 162 | 173 | 266 | 200 | 251 | 178 | 156 | 312 | 189
CNC(=O)CN1CCC(Oc2cc3c(Nc4cccc(Cl)c4F)ncnc3cc2OC)CC1 [Sapitinib] | 235 | 431 | 312 | 404 | > 500 | 491 | 439 | 338 | 458 | 492 | 464
CN1CCN(CCOc2cc(OC3CCOCC3)c3c(Nc4c(Cl)ccc5c4OCO5)ncnc3c2)CC1 [Saracatinib] | 422 | 492 | 415 | 466 | 464 | 455 | 475 | 381 | 478 | 477 | 493
C[C@@H](c1ccc2nccn2c1)n1nnc2ncc(-c3cnn(C)c3)nc21 [Savolitinib] | 472 | 489 | > 500 | > 500 | > 500 | 499 | > 500 | > 500 | 497 | > 500 | 489
COCC[n+]1c2c(n(Cc3cnccn3)c1C)C(=O)c1ccccc1C2=O [Sepantronium bromide] | 348 | 241 | 395 | 286 | 337 | 331 | 429 | 408 | 427 | 316 | 312
COc1ncc(-c2nc3c(n2C(C)C)[C@H](c2ccc(Cl)cc2)N(c2cc(Cl)cn(C)c2=O)C3=O)c(OC)n1 [Siremadlin] | 200 | 306 | 246 | 385 | 383 | 318 | 373 | 359 | 328 | 414 | 395
COCCNCc1ccc(-c2cc3nccc(Oc4ccc(NC(=O)C5(C(=O)Nc6ccc(F)cc6)CC5)cc4F)c3s2)nc1 [Sitravatinib] | 374 | 417 | 425 | 433 | 436 | 375 | 441 | 442 | 432 | 431 | 457
Cc1c(C(=O)Nc2ccc(N3C[C@@H](C)O[C@@H](C)C3)nc2)cccc1-c1ccc(OC(F)(F)F)cc1 [Sonidegib] | 409 | 477 | 470 | 465 | 485 | 466 | 477 | > 500 | 470 | 469 | 477
CNC(=O)c1cc(Oc2ccc(NC(=O)Nc3ccc(Cl)c(C(F)(F)F)c3)cc2)ccn1 [Sorafenib] | 443 | 448 | 440 | 459 | 454 | 437 | 453 | 458 | 431 | 452 | 448
C[C@@H](NC(=O)c1ncnc(N)c1Cl)c1ncc(C(=O)Nc2cc(C(F)(F)F)c(Cl)cn2)s1 [TAK-580] | 433 | > 500 | 485 | > 500 | > 500 | > 500 | > 500 | > 500 | 449 | > 500 | > 500
CN(C)C/C=C/C(=O)Nc1ccc(C(=O)Nc2cccc(Nc3ncc(Cl)c(-c4c[nH]c5ccccc45)n3)c2)cc1 [THZ1] | 256 | 223 | 276 | 343 | 291 | 281 | 410 | 435 | 314 | 241 | 371
CN(C)C/C=C/C(=O)Nc1ccc(C(=O)N2CCC[C@@H](Nc3ncc(Cl)c(-c4c[nH]c5ccccc45)n3)C2)cc1 [THZ531] | 332 | 263 | 376 | 340 | 360 | 374 | 344 | 336 | 367 | 320 | 332
Cn1ncnc1[C@H]1c2n[nH]c(=O)c3cc(F)cc(c23)N[C@@H]1c1ccc(F)cc1 [Talazoparib] | 367 | 341 | 328 | 439 | 399 | 383 | 438 | 403 | 392 | 444 | 486
C=CCNC1=C2C[C@@H](C)C[C@H](OC)[C@H](O)[C@@H](C)/C=C(\C)[C@H](OC(N)=O)[C@@H](OC)/C=C\C=C(/C)C(=O)NC(=CC1=O)C2=O [Tanespimycin] | 220 | 382 | 245 | 327 | 384 | 337 | 356 | 311 | 267 | 346 | 373
Cc1nc(-c2cn3c(n2)-c2ccc(-c4cnn(C(C)(C)C(N)=O)c4)cc2OCC3)n(C(C)C)n1 [Taselisib] | 361 | 305 | 351 | 437 | 388 | 349 | 475 | 413 | 435 | 415 | 493

SMILES | area under the viability dose-response curve (10F2) | area under the viability dose-response curve (3E) | area under the viability dose-response curve (13F2) | area under the viability dose-response curve (96F1) | area under the viability dose-response curve (13E) | area under the viability dose-response curve (17E) | area under the viability dose-response curve (8F1) | area under the viability dose-response curve (27F1) | area under the viability dose-response curve (135F2) | area under the viability dose-response curve (22E) | area under the viability dose-response curve (17F1)
CCN(c1cc(-c2ccc(CN3CCOCC3)cc2)cc(C(=O)NCc2c(C)cc(C)[nH]c2=O)c1C)C1CCOCC1 [Tazemetostat] | 448 | 461 | 360 | 473 | 479 | 415 | > 500 | 475 | 473 | 481 | 482
Cn1nnc2c(C(N)=O)ncn2c1=O [Temozolomide] | 468 | 499 | 487 | 480 | > 500 | 462 | > 500 | > 500 | > 500 | 490 | 494
CO[C@H]1C[C@@H]2CC[C@@H](C)[C@@](O)(O2)C(=O)C(=O)N2CCCC[C@H]2C(=O)O[C@H]([C@H](C)C[C@@H]2CC[C@@H](OC(=O)C(C)(CO)CO)[C@H](OC)C2)CC(=O)[C@H](C)/C=C(\C)[C@@H](O)[C@@H](OC)C(=O)[C@H](C)C[C@H](C)/C=C/C=C/C=C/1C [Temsirolimus] | 339 | 280 | 342 | 496 | 373 | 341 | 493 | 475 | 469 | 406 | 471
S=P(N1CC1)(N1CC1)N1CC1 [ThioTEPA] | 394 | 400 | 433 | 461 | 483 | 443 | 478 | 472 | 440 | 474 | 488
O=C1NC(=O)[C@@H](c2cn3c4c(cccc24)CCC3)[C@@H]1c1c[nH]c2ccccc12 [Tivantinib] | 320 | 349 | 350 | 377 | 358 | 345 | 455 | 375 | 367 | 404 | 415
CC[C@@]1(O)C(=O)OCc2c1cc1n(c2=O)Cc2cc3c(CN(C)C)c(O)ccc3nc2-1 [Topotecan] | 311 | 257 | 239 | 284 | 328 | 269 | 372 | 348 | 291 | 416 | 319
Cc1cccc(-c2[nH]c(CNc3ccccc3F)nc2-c2ccc3ncnn3c2)n1 [Vactosertib] | 394 | 419 | > 500 | 496 | 493 | > 500 | 491 | > 500 | 481 | 481 | > 500
C[C@@H]1COC(Nc2ccc3ncnc(Nc4ccc(OCc5nccs5)c(Cl)c4)c3c2)=N1 [Varlitinib] | 382 | 485 | 372 | 430 | 476 | 480 | 476 | 433 | 465 | 481 | 447
CCCS(=O)(=O)Nc1ccc(F)c(C(=O)c2c[nH]c3ncc(-c4ccc(Cl)cc4)cc23)c1F [Vemurafenib] | 395 | 490 | 440 | 490 | 475 | 496 | 495 | 499 | 498 | 447 | 499
CC[C@]1(O)C[C@@H]2CN(CCc3c([nH]c4ccccc34)[C@@](C(=O)OC)(c3cc4c(cc3OC)N(C)[C@H]3[C@@](O)(C(=O)OC)[C@H](OC(C)=O)[C@]5(CC)C=CCN6CC[C@]43[C@@H]65)C2)C1 [Vinblastine] | 160 | 148 | 189 | 156 | 164 | 183 | 220 | 194 | 176 | 223 | 208
CC[C@]1(O)C[C@H]2CN(CCc3c([nH]c4ccccc34)[C@@](C(=O)OC)(c3cc4c(cc3OC)N(C=O)[C@H]3[C@@](O)(C(=O)OC)[C@H](OC(C)=O)[C@]5(CC)C=CCN6CC[C@]43[C@@H]65)C2)C1 [Vincristine] | 188 | 125 | 222 | 196 | 174 | 181 | 243 | 218 | 209 | 193 | 180
CC[C@]1(O)C[C@@H]2CN(CCc3c([nH]c4ccccc34)[C@@](C(=O)OC)(c3cc4c(cc3OC)N(C)[C@H]3[C@@](O)(C(N)=O)[C@H](O)[C@]5(CC)C=CCN6CC[C@]43[C@@H]65)C2)C1 [Vindesine] | 195 | 170 | 246 | 173 | 204 | 206 | 211 | 238 | 202 | 219 | 239
CS(=O)(=O)c1ccc(C(=O)Nc2ccc(Cl)c(-c3ccccn3)c2)c(Cl)c1 [Vismodegib] | 443 | > 500 | 490 | 494 | 496 | > 500 | > 500 | 497 | 473 | 452 | 489
CNC(=O)c1cccc(-c2ccc3c(N4CCOC[C@@H]4C)nc(N4CCOC[C@@H]4C)nc3n2)c1 [Vistusertib] | 324 | 376 | 342 | 460 | 409 | 392 | 470 | 407 | 407 | 426 | 498
CC[C@@H]1C(=O)N(C)c2cnc(Nc3ccc(C(=O)N[C@H]4CC[C@H](N5CCN(CC6CC6)CC5)CC4)cc3OC)nc2N1C(C)C [Volasertib] | 227 | 278 | 278 | 281 | 263 | 249 | 351 | 255 | 257 | 326 | 331
O=C(CCCCCCC(=O)Nc1ccccc1)NO [Vorinostat] | 404 | 379 | 400 | 435 | 428 | 406 | 452 | 440 | 408 | 421 | 437
